Laboratory results as given in US9211310B2, “Use of a Chinese medicine composition in preparing medicaments for treating secondary prevention of myocardial infarction” (TASLY PHARMACEUTICAL GROUP CO., LTD, priority 2010, dated 2015).

Tested on: patients after acute myocardial infarction
Assay: TCM symptom score, total and single (chest pain, chest tightness, short breath, fatigue, palpitation, spontaneous perspiration, pale complexion), same clinical trial
Type: in vivo, human
Set-up: total score of TCM symptom, Mean / total score of TCM symptom, Min / total score of TCM symptom, Max / total score of TCM symptom, Md / change of total score of TCM symptom, Mean / change of total score of TCM symptom, Max / change of total score of TCM symptom, Md: scale not given here
Conditions: PP
Text: 3508 patients who were in accordance with the diagnostic standards of AMI for 28 days to 2 years and differentiated as Qi deficiency and blood stagnation syndrome by TCM were studied. 0.5 g Chinese medicine composition prepared by the method of EXAMPLE 1 (Coded as QSYQ) was administrated half an hour after meal, 3 times per day.
They included the overall survival time, angina pectoris score, TCM symptom score and life quality score, where angina pectoris score, TCM symptom score and life quality score were evaluated at randomization, in 1st, 3rd, 6th, 9th, 12th month after treatment and 18th month after follow-up.
The analysis method referred to the angina pectoris score.

For `CC(=O)Oc1ccccc1C(=O)O` [Control group, aspirine], the “pale complexion score 3, percent of patients” value (Baseline) was “(3.88%)”, the “short breath score 0, % of patients” value (Baseline) was “(14.48%)” and the “short breath score 0, number of patients” value (Baseline) was 213. The “short breath score 3, % of patients” value (Baseline) was “(51.12%)”, the “short breath score 3, number of patients” value (Baseline) was 752 and the “short breath score 6, % of patients” value (Baseline) was “(32.56%)”. The “short breath score 6, number of patients” value (Baseline) was 479, the “short breath score 9, % of patients” value (Baseline) was “(1.84%)” and the “short breath score 9, number of patients” value (Baseline) was 27. The “distribution of total score of TCM symptom: Medium, number of patients” value (Follow-up) was 212, the “distribution of total score of TCM symptom: Medium, percentage of patients” value (Follow-up) was “(15.23%)” and the “distribution of total score of TCM symptom: Mild, number of patients” value (Follow-up) was 1177. For the same compound, the “distribution of total score of TCM symptom: Mild, percentage of patients” value (Follow-up) was “(84.55%)”, the “distribution of total score of TCM symptom: Severe, number of patients” value (Follow-up) was 3 and the “distribution of total score of TCM symptom: Severe, percentage of patients” value (Follow-up) was “(0.22%)”. For the same compound, the “fatigue score 0, % of patients” value (Follow-up) was “(42.80%)”, the “fatigue score 0, number of patients” value (Follow-up) was 597 and the “fatigue score 2, % of patients” value (Follow-up) was “(52.97%)”. For the same compound, the “fatigue score 2, number of patients” value (Follow-up) was 739, the “fatigue score 4, % of patients” value (Follow-up) was “(4.01%)” and the “fatigue score 4, number of patients” value (Follow-up) was 56. For the same compound, the “fatigue score 6, % of patients” value (Follow-up) was “(0.22%)”, the “fatigue score 6, number of patients” value (Follow-up) was 3 and the “pale complexion score 0, number of patients” value (Follow-up) was 862. The “pale complexion score 0, percent of patients” value (Follow-up) was “(61.79%)”, the “pale complexion score 1, number of patients” value (Follow-up) was 452 and the “pale complexion score 1, percent of patients” value (Follow-up) was “(32.40%)”. The “pale complexion score 2, number of patients” value (Follow-up) was 75, the “pale complexion score 2, percent of patients” value (Follow-up) was “(5.38%)” and the “pale complexion score 3, number of patients” value (Follow-up) was 6. The “pale complexion score 3, percent of patients” value (Follow-up) was “(0.43%)”, the “palpitation score 0, number of patients” value (Follow-up) was 613 and the “palpitation score 0, percent of patients” value (Follow-up) was “(43.94%)”. The “palpitation score 2, number of patients” value (Follow-up) was 683, the “palpitation score 2, percent of patients” value (Follow-up) was “(48.96%)” and the “palpitation score 4, number of patients” value (Follow-up) was 94. For the same compound, the “palpitation score 4, percent of patients” value (Follow-up) was “(6.74%)”, the “palpitation score 6, number of patients” value (Follow-up) was 5 and the “palpitation score 6, percent of patients” value (Follow-up) was “(0.36%)”. For the same compound, the “short breath score 0, % of patients” value (Follow-up) was “(35.34%)”, the “short breath score 0, number of patients” value (Follow-up) was 493 and the “short breath score 2, % of patients” value (Follow-up) was “(0.07%)”. The “short breath score 2, number of patients” value (Follow-up) was 1, the “short breath score 3, % of patients” value (Follow-up) was “(54.70%)” and the “short breath score 3, number of patients” value (Follow-up) was 763. The “short breath score 6, % of patients” value (Follow-up) was “(9.68%)”, the “short breath score 6, number of patients” value (Follow-up) was 135 and the “short breath score 9, % of patients” value (Follow-up) was “(0.22%)”. The “short breath score 9, number of patients” value (Follow-up) was 3, the “spontaneous perspiration score 0, number of patients” value (Follow-up) was 750 and the “spontaneous perspiration score 0, percent of patients” value (Follow-up) was “(53.80%)”. For the same compound, the “spontaneous perspiration score 1, number of patients” value (Follow-up) was 578, the “spontaneous perspiration score 1, percent of patients” value (Follow-up) was “(41.46%)” and the “spontaneous perspiration score 2, number of patients” value (Follow-up) was 62. The “spontaneous perspiration score 2, percent of patients” value (Follow-up) was “(4.45%)”, the “spontaneous perspiration score 3, number of patients” value (Follow-up) was 4 and the “spontaneous perspiration score 3, percent of patients” value (Follow-up) was “(0.29%)”. For the same compound, the “total score of TCM symptom, Max” value (Follow-up) was 32.00, the “total score of TCM symptom, Md” value (Follow-up) was 7.00 and the “total score of TCM symptom, Mean” value (Follow-up) was 7.73. For the same compound, the “total score of TCM symptom, Min” value (Follow-up) was 0.00, the “change of fatigue 0, % of patients” value (Follow-up-baseline) was “(42.99%)” and the “change of fatigue 0, number of patients” value (Follow-up-baseline) was 598. The “change of fatigue 2, % of patients” value (Follow-up-baseline) was “(37.60%)”, the “change of fatigue 2, number of patients” value (Follow-up-baseline) was 523 and the “change of fatigue 4, % of patients” value (Follow-up-baseline) was “(11.00%)”. The “change of fatigue 4, number of patients” value (Follow-up-baseline) was 153, the “change of fatigue 6, % of patients” value (Follow-up-baseline) was “(2.01%)” and the “change of fatigue 6, number of patients” value (Follow-up-baseline) was 28. The “change of fatigue −2, % of patients” value (Follow-up-baseline) was “(6.18%)”, the “change of fatigue −2, number of patients” value (Follow-up-baseline) was 86 and the “change of fatigue −4, % of patients” value (Follow-up-baseline) was “(0.22%)”. The “change of fatigue −4, number of patients” value (Follow-up-baseline) was 3, the “change of pale complexion 0, number of patients” value (Follow-up-baseline) was 932 and the “change of pale complexion 0, percent of patients” value (Follow-up-baseline) was “(67.29%)”. For the same compound, the “change of pale complexion 1, number of patients” value (Follow-up-baseline) was 414, the “change of pale complexion 1, percent of patients” value (Follow-up-baseline) was “(29.89%)” and the “change of pale complexion −1, number of patients” value (Follow-up-baseline) was 39. The “change of pale complexion −1, percent of patients” value (Follow-up-baseline) was “(2.82%)”, the “change of palpitation 0, number of patients” value (Follow-up-baseline) was 677 and the “change of palpitation 0, percent of patients” value (Follow-up-baseline) was “(48.71%)”. For the same compound, the “change of palpitation 1, number of patients” value (Follow-up-baseline) was 516, the “change of palpitation 1, percent of patients” value (Follow-up-baseline) was “(37.12%)” and the “change of palpitation 2, number of patients” value (Follow-up-baseline) was 93. The “change of palpitation 2, percent of patients” value (Follow-up-baseline) was “(6.69%)”, the “change of palpitation 3, number of patients” value (Follow-up-baseline) was 14 and the “change of palpitation 3, percent of patients” value (Follow-up-baseline) was “(1.01%)”. The “change of palpitation −1, number of patients” value (Follow-up-baseline) was 86, the “change of palpitation −1, percent of patients” value (Follow-up-baseline) was “(6.19%)” and the “change of palpitation −2, number of patients” value (Follow-up-baseline) was 3. The “change of palpitation −2, percent of patients” value (Follow-up-baseline) was “(0.22%)”, the “change of palpitation −3, number of patients” value (Follow-up-baseline) was 1 and the “change of palpitation −3, percent of patients” value (Follow-up-baseline) was “(0.07%)”. For the same compound, the “change of short breath 0, % of patients” value (Follow-up-baseline) was “(52.12%)”, the “change of short breath 0, number of patients” value (Follow-up-baseline) was 725 and the “change of short breath 2, % of patients” value (Follow-up-baseline) was “(36.45%)”. The “change of short breath 2, number of patients” value (Follow-up-baseline) was 507, the “change of short breath 4, % of patients” value (Follow-up-baseline) was “(5.46%)” and the “change of short breath 4, number of patients” value (Follow-up-baseline) was 76. For the same compound, the “change of short breath 6, % of patients” value (Follow-up-baseline) was “(0.72%)”, the “change of short breath 6, number of patients” value (Follow-up-baseline) was 10 and the “change of short breath −2, % of patients” value (Follow-up-baseline) was “(5.10%)”. For the same compound, the “change of short breath −2, number of patients” value (Follow-up-baseline) was 71, the “change of short breath −4, % of patients” value (Follow-up-baseline) was “(0.00%)” and the “change of short breath −4, number of patients” value (Follow-up-baseline) was 0. The “change of short breath −6, % of patients” value (Follow-up-baseline) was “(0.14%)”, the “change of short breath −6, number of patients” value (Follow-up-baseline) was 2 and the “change of spontaneous perspiration 0, number of patients” value (Follow-up-baseline) was 644. For the same compound, the “change of spontaneous perspiration 0, percent of patients” value (Follow-up-baseline) was “(46.33%)”, the “change of spontaneous perspiration 1, number of patients” value (Follow-up-baseline) was 451 and the “change of spontaneous perspiration 1, percent of patients” value (Follow-up-baseline) was “(32.45%)”. The “change of spontaneous perspiration 2, number of patients” value (Follow-up-baseline) was 138, the “change of spontaneous perspiration 2, percent of patients” value (Follow-up-baseline) was “(9.93%)” and the “change of spontaneous perspiration 3, number of patients” value (Follow-up-baseline) was 31. The “change of spontaneous perspiration 3, percent of patients” value (Follow-up-baseline) was “(2.23%)”, the “change of spontaneous perspiration −1, percent of patients” value (Follow-up-baseline) was “(8.35%)” and the “change of spontaneous perspiration −2, number of patients” value (Follow-up-baseline) was 8. The “change of spontaneous perspiration −2, percent of patients” value (Follow-up-baseline) was “(0.58%)”, the “change of spontaneous perspiration −3, number of patients” value (Follow-up-baseline) was 2 and the “change of spontaneous perspiration −3, percent of patients” value (Follow-up-baseline) was “(0.14%)”. For the same compound, the “change of total score of TCM symptom, Max” value (Follow-up-baseline) was 27.00, the “change of total score of TCM symptom, Md” value (Follow-up-baseline) was −5.00 and the “change of total score of TCM symptom, Mean” value (Follow-up-baseline) was −6.16. The “change of total score of TCM symptom, Min” value (Follow-up-baseline) was −29.00.
